The text below walks through data of US4537723A, “Derivatives of leukotrienes A and C” (The Upjohn Company, priority 1983, dated 1985).

The test system of the test is SRS-A formation in rat mononuclear cells. Put plainly: SRS-A formation in rat mononuclear cells incubated with cysteine and challenged with a calcium ionophore. The class given is cell-based. To be noted: 10 μg/ml; for inhibition at 10 µg/mL: Rattus norvegicus, read-out: effectiveness in preventing the synthesis of SRS-A. The method, then: As an example of the SRS-A inhibitory activity of the compounds of this invention, several of these compounds were evaluated in a standard laboratory test. This test is conducted in rat mononuclear cells incubated in the presence of cysteine and challenged with a calcium ionophore (which induces SRS-A formation). In this test system, two of these compounds, the isomers of 1-carboxy-3-N-octylcyclopropane-2-octanoic acid.

As for `CCCCCCCCC(O)C(CCCCCCCC(=O)O)[Se]c1ccccc1` (stereo not drawn) [9-Phenylselenyl-10-Hydroxyoctadecanoic Acid], the inhibition at 10 µg/mL was found to be 100%.
Take `CCCCCCCCC1C(CCCCCCCC(=O)O)C1C(=O)O` (stereo not drawn) [Example 4, 1-Carboxy-3-n-Octylcyclopropane-2-Octanoic Acid]: the “inhibition of the synthesis of SRS-A” value (rat mononuclear cells, calcium ionophore challenge) is listed as “totally inhibited”.
As for `CCCCCCCCC([Se]c1ccccc1)C(O)CCCCCCCC(=O)O` (stereo not drawn) [9-Hydroxy-10-Phenylselenyloctadecanoic Acid], the inhibition at 10 µg/mL worked out at 100%.
